Assay results from US6939968B2, “Atropisomers of 3-substituted-4-arylquinolin-2-one derivatives” (Bristol-Myers Squibb Company, priority 2002, dated 2005).
Where “and” joins values, the source holds several entries; their conditions need not be identical. Equal values may be shown once.

Tests used:
[1] = tested on: cloned mammalian (mSlo or hSlo) BK channels heterologously expressed in Xenopus oocytes; assay: BK-mediated outward current in Xenopus oocytes, two-electrode voltage clamp; type: cell-based; conditions: for Current: compounds at 10 μM, IBTX at supramaximal concentration (50-100 nM); for BK Current: at 10 μM, percent increase over BK current in controls, voltage step to +140 mV, IBTX-sensitive current
Procedure: The ability of the compounds of the invention to open BK channels and increase whole-cell outward (K+) BK-mediated currents was assessed under voltage-clamp conditions by determining their ability to increase cloned mammalian (mSlo or hSlo) BK—mediated outward current heterologously expressed in Xenopus oocytes [Butler, A., et al., Science, 261: 221-224 (1993); Dworetzky, S. I., et al., Mol. Brain Res., 27: 189-193 (1994); Gribkoff, V. K., et al., Mol. Pharmacol., 50:206-217 (1996)]. The two BK constructs employed represent nearly structurally identical homologous proteins, and have proven to be pharmacologically indistinguishable in our tests. To isolate BK current from native (background, non-BK) current, the specific and potent BK channel-blocking toxin iberiotoxin (IBTX) [Galvez, A., et al., J. Biol. Chem., 265: 11083-11090 (1990)] was employed at a supramaximal concentration, e.g., 50-100 nanomolar (“nM”). The relative contribution of BK channel-mediated current to total outward current was determined by subtraction of the current remaining in the presence of IBTX (non-BK current) from the current profiles obtained in all other experimental conditions (control, drug, and wash) [Gribkoff, V. K. et al., Mol. Pharmacol., 50:206-217 (1996)]. […] All compounds were tested in 5-10 oocytes and are reported at the indicated concentration of 10 micromolar (“μM”); the effect of the selected compounds of the invention on BK current was expressed as the percent of control IBTX-sensitive current at a single transmembrane voltage (+140 mV) and is listed in Table 1. Recordings were accomplished using standard two-electrode voltage clamp techniques [Stuhmer, W., et al., Methods in Enzymology, Vol. 207: 319-339 (1992)]; voltage-clamp protocols consisted of 500-750 milliseconds (“ms”) duration step depolarizations, from a holding potential of −60 mV, to a final voltage up to +140 mV in 20 mV steps. Table 2 lists the current-voltage (I-V) data for two compounds of the invention, applied to oocytes at a concentration of 10 μM. The experimental media (modified Barth's solution) consisted of millimolar (“mM”): NaCl (88), NaHCO3 (2.4), KCl (1.0), HEPES (10), MgSO4 (0.82), Ca(NO3)2 (0.33), CaCl2 (0.41); pH 7.5.

[2] = tested on: stress-induced colonic motility (fecal pellet output); assay: Air jet stress-induced colonic motor activity; type: in vivo; conditions: rats, 20 mg/kg ip
Procedure: Environmental stress is believed to play a role in irritable bowel syndrome and other altered bowel motility states. […] Based on this, we tested the hypothesis that maxi-K^+potassium channel openers of the present invention can be effective in reducing stress-induced acceleration in colonic motility, as indexed by fecal pellet output.
Rats were randomly divided into 2 groups and treated with vehicle (polyethylene glycol (400 grams per mole), 1 mL/kg, ip) or the compound of Example 1 in racemate form (20 mg/kg) at time zero. At 1.5 hr post-treatment, each rat was partially restrained in plexiglas container and was subjected to air-jet stress. This was brought about by exposing each of the partially-restrained animals to 3-4 episodes of 2 minute long air jets with an interval of 8-10 minutes between episodes. The fecal output was collected and the wet weight was recorded. The data were analyzed by combining individual output within each group to calculate a group mean and the means were compared using a statistical test (unpaired, two-tailed t-test; p<0.05).

Compound “iberiotoxin (QFTDVDCSVSKECWSVCKDLFGVDRGKCMGKKCRCYQ; UniProt P24663 1-37, looked up) [IBTX, reference compound]” has a Current ([1]; voltage 0 mV) of 0 μA, a Current ([1]; voltage 20 mV) of 0 μA and a Current ([1]; voltage 40 mV) of 0 μA. It also gave a Current ([1]; voltage 60 mV) of 0 μA, a Current ([1]; voltage 80 mV) of 0.1 μA and a Current ([1]; voltage 100 mV) of 0.2 μA. It also gave a Current ([1]; voltage 120 mV) of 0.6 μA, a Current ([1]; voltage 140 mV) of 1.2 μA and a Current ([1]; voltage −20 mV) of 0 μA. For the same compound, the Current ([1]; voltage −40 mV) was 0 μA.
With O=c1[nH]c2ccc(C(F)(F)F)cc2c(-c2cc(Cl)ccc2O)c1CCO (single isomer, unassigned) [Example 3-atropisomer B, (+) 4-(5-Chloro-2-hydroxy-phenyl)-3-(2-hydroxy-ethyl)-6-trifluoromethyl-1H-quinolin2-one] the “BK Current” value ([1]; listed as 3-atropisomer B) was 213.9 ± 21.4%.
With Cn1c(=O)c(CCO)c(-c2cc(Cl)ccc2O)c2cc(C(F)(F)F)ccc21 (single isomer, unassigned) [Example 5-atropisomer A, (−) 4-(5-Chloro-2-hydroxy-phenyl)-1-methyl-3-(2-hydroxy-ethyl)-6-trifluoromethyl-1H-quinolin2-one] the “BK Current” value [1] was 360.8 ± 29.6% and 183.6 ± 9.50%.
Compound Cn1c(=O)c(CCO)c(-c2cc(Cl)ccc2O)c2cc(C(F)(F)F)ccc21 [Example 2] has a Current ([1]; voltage 0 mV) of 0 μA, a Current ([1]; voltage 20 mV) of 0 μA and a Current ([1]; voltage 40 mV) of 0.2 μA. It also gave a Current ([1]; voltage 60 mV) of 0.6 μA, a Current ([1]; voltage 80 mV) of 1.4 μA and a Current ([1]; voltage 100 mV) of 2.5 μA. The Current ([1]; voltage 120 mV) was 3.9 μA, the Current ([1]; voltage 140 mV) was 5.6 μA and the Current ([1]; voltage −20 mV) was 0 μA. It also gave a Current ([1]; voltage −40 mV) of 0 μA.
In the case of O=c1[nH]c2ccc(C(F)(F)F)cc2c(-c2cc(Cl)ccc2O)c1CCO (single isomer, unassigned) [Example 3-atropisomer A, (−) 4-(5-Chloro-2-hydroxy-phenyl)-3-(2-hydroxy-ethyl)-6-trifluoromethyl-1H-quinolin2-one], the “BK Current” value ([1]; listed as 3-atropisomer A) is reported as 291.8 ± 26.8%.
In the case of O=c1[nH]c2ccc(C(F)(F)F)cc2c(-c2cc(Cl)ccc2O)c1CCO (racemic) [Example 1, 4-(5-Chloro-2-hydroxyphenyl)-3-(2-hydroxyethyl)-6 (trifluoromethyl)-2(1H)-Quinolinone], the Current ([1]; voltage 0 mV) is reported as 0.2 μA, the Current ([1]; voltage 20 mV) is reported as 0.7 μA and the Current ([1]; voltage 40 mV) is reported as 1.8 μA. It also gave a Current ([1]; voltage 60 mV) of 3.3 μA, a Current ([1]; voltage 80 mV) of 4.9 μA and a Current ([1]; voltage 100 mV) of 6.6 μA. For the same compound, the Current ([1]; voltage 120 mV) was 8.4 μA, the Current ([1]; voltage 140 mV) was 10.2 μA and the Current ([1]; voltage −20 mV) was 0 μA. The Current ([1]; voltage −40 mV) was 0 μA, the “fecal output (wet weight, group mean)” value ([2]; air-jet stress 1.5 hr post-treatment, vehicle group 0.37 grams) was 0.03 grams and the “animals showing a defecatory response to air-jet” value ([2]; vehicle group 9/12) was 3 out of 11.
